# Source: patent US20250074911A1, “MACROCYCLIC BTK INHIBITORS” (Crossfire Oncology Holding B.V., priority 2021, published 2025)
# Like-named read-outs stand apart in the source and are kept apart here.
# Assays:
# [1] = test system: wt-TMD8 diffuse large B-cell lymphoma cells; test: Cell proliferation assay wt-TMD8 (ATPlite, 120 hours); format: cell-based; conditions: wt-TMD8 cells, 120 hours, ATPlite, read-out: IC50 wt-TMD8
# Outline: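 wt-TMD8 DLBCL cells, 1600 per well in RPMI-1640 with 10% FBS, rested ≥5 h then exposed to compound for 120 h at 37° C, 5% CO2. Viability read by ATPlite luminescence; percentage growth calculated relative to start-of-incubation signal and untreated 0.3% DMSO maximum growth.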
# [2] = test system: wt-REC-1 mantle cell lymphoma cells; test: Cell proliferation assay wt-REC-1 (ATPlite, 72 hours); format: cell-based; conditions: read-out: IC50 wt-REC-1
# Outline: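 Luminescent viability read over 72 h, start-of-incubation signal recorded separately to separate growth from cell death. Percentage growth referenced to compound-free 0.3% DMSO wells; IC50 from 4-parameter logistic fit.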
# [3] = test system: REC-1 T474I cell lines; test: Cell proliferation assay REC-1 BTK T474I knock-in cells (ATPlite, 72 hours); format: cell-based; conditions: 72 hours, read-out: IC50 REC-1 T474I
# Outline: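 REC-1 cells carrying CRISPR knock-in mutant BTK, single-cell cloned and sequence-confirmed, were exposed to compound for 72 h and read by ATPlite luminescence. Percentage growth was calculated against the signal at the start of incubation and against untreated 0.3% DMSO wells as maximum growth.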
# [4] = target: full-length BTK C481S enzyme (Homo sapiens (Human), UniProt Q06187, C481S); test: Biochemical kinase assay BTK C481S (IMAP)
# Sequence of full-length BTK C481S enzyme (Q06187 whole entry C481S): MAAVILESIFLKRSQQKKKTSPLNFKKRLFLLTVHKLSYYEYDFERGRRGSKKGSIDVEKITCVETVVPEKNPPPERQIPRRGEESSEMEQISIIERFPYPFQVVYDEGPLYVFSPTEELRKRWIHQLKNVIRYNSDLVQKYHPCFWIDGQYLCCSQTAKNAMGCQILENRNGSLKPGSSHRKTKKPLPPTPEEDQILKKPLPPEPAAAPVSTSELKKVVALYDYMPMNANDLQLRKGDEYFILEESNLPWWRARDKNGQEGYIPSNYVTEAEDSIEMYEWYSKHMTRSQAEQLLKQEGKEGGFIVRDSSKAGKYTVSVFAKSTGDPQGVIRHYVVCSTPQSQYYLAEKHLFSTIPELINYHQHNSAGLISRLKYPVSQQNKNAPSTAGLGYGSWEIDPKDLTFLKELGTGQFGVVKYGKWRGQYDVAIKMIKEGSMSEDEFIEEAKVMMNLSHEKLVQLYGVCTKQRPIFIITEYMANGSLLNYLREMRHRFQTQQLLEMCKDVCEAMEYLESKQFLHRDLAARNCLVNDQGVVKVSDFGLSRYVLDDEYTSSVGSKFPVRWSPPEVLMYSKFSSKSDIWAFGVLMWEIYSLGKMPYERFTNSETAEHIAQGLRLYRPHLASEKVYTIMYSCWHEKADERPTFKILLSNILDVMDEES
# Outline: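 Full-length BTK C481S (1.2 nM) was pre-incubated with compound for 1 h at room temperature in the dark, then reacted with fluorescein-labelled MBP-derived peptide (50 nM) and ATP (7 μM) for 2 h. Reactions were quenched with IMAP binding solution, and IC50 values were derived from fluorescence polarization.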
# [5] = target: BTK T474I (Homo sapiens (Human), UniProt Q06187, T474I); test: Binding kinetics measurements (Surface Plasmon Resonance) on BTK T474I; conditions: target residence time, SPR
# Sequence of BTK T474I (Q06187 whole entry T474I): as the sequence (Q06187 whole entry C481S) above, with T474I, S481C counted along it
# Protocol: (§1) Binding kinetics measurements on wt-BTK, BTK […], BTK […], BTK […] and BTK […] (Surface Plasmon Resonance) Streptavidin-coated chips (Cat. No. BR100531), disposables and maintenance kits for Biacore were purchased from Cytiva (Eindhoven, The Netherlands). […] Remaining streptavidin was blocked with biocytin. Immobilization was performed at 4° C. Subsequent assay steps were conducted at 22° C. After changing buffer to Biacore buffer with 1% (v/v) dimethylsulfoxide (DMSO), a pre-run was performed for a period of at least 30 min at a flow rate of 30 μl/min to obtain a stable surface. The kinetic constants of the compounds were determined with single cycle kinetics with five consecutive injections with an increasing compound concentration with ranges of 3.16-316 nM. […] To circumvent problems of mass transport limitation, a flow rate of 30 μl/min was used. A blank run with the same conditions was performed before the compound was injected. The SPR sensorgrams were analyzed with Biacore Evaluation Software by using a method of double referencing. First the reference channel was subtracted from the channel containing immobilized protein. Subsequently, the reference curve obtained with buffer injections was subtracted. […] Compounds that bound according to an induced fit model were fitted with a two-state reaction model. The kinetic constants (ka, […], KD) of duplicates were geometrically averaged. […] Target residence for an induced fit model was calculated as described (Tummino and Copeland, 2008).
# [6] = target: full-length wt-BTK enzyme (Homo sapiens (Human), UniProt Q06187); test: Biochemical kinase assay wt-BTK (IMAP)
# Sequence of full-length wt-BTK enzyme (Q06187 whole entry): as the sequence (Q06187 whole entry C481S) above, with S481C counted along it
# Outline: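 IMAP fluorescence polarization assay: 1.2 nM enzyme pre-incubated 1 h with compound at room temperature, then 50 nM fluorescein-labeled MBP-derived peptide and 4 μM ATP added. Reaction ran 2 h at room temperature in the dark before quenching with IMAP binding solution.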
# [7] = target: wt-BTK (Homo sapiens (Human), UniProt Q06187); test: Binding kinetics measurements (Surface Plasmon Resonance) on wt-BTK; conditions: target residence time, SPR
# Sequence of wt-BTK (Q06187 whole entry): as the sequence (Q06187 whole entry C481S) above, with S481C counted along it
# Protocol: as §1
Structure (SMILES),IC50 ([1]; B-cell) [nM],IC50 ([2]; 72 h) [nM],IC50 [4] [nM],Tau (h) BTK T474I (Act) [5] [h],IC50 [6] [nM],Tau (h) wt-BTK (Act) [7] [h],IC50 [1] [nM],IC50 ([2]; 72 hours) [nM],"IC50 ([3]; Homo sapiens, Rec1) [nM]",IC50 [3] [nM]
Nc1ncc2c3c1c(-c1ccc(C(=O)Nc4cc(C(F)(F)F)ccn4)cc1)nn3[C@@H]1CCC[C@H](C1)NC(=O)CNCC/C=C/2 [Example 32],< 100,< 100,< 5,–,< 5,–,–,–,100 to 500,–
C[C@@H]1CCn2nc(-c3ccc(C(=O)Nc4cc(C(F)(F)F)ccn4)cc3)c3c(N)ncc(c32)/C=C/C[C@@H](C)OCCC(=O)N1 [Example 72],< 100,< 100,< 5,–,< 5,–,–,–,500 to 10000,–
C[C@@H]1CCn2nc(-c3ccc(C(=O)Nc4cc(C(F)(F)F)ccn4)cc3)c3c(N)ncc(c32)/C=C/CCCCCC(=O)N1 [Example 60],< 100,< 100,< 5,–,< 5,–,–,–,500 to 10000,–
Nc1ncc2c3c1c(-c1ccc(C(=O)Nc4cc(C(F)(F)F)ccn4)cc1)nn3[C@@H]1CCC[C@H](C1)NC(=O)CNC/C=C\C2 [Example 105],100 to 1000,1000 to 10000,5 to 50,–,5 to 50,–,–,–,500 to 10000,–
"CC1NC/C=C/c2cnc(N)c3c(-c4ccc(C(=O)Nc5cc(C(F)(F)F)ccn5)cc4)nn(c23)CC[C@@H](C)NC1=O (single isomer, unassigned) [Example 144]",–,–,5 to 50,–,5 to 50,–,< 100,1000 to 10000,–,500 to 10000
Nc1ncc2c3c1c(-c1ccc(C(=O)Nc4cc(C(F)(F)F)ccn4)cc1)nn3[C@@H]1CCC[C@H](C1)NC(=O)CCCCC/C=C\C2 [Example 101b],< 100,100 to 1000,< 5,–,< 5,–,–,–,500 to 10000,–
[2H]C1CCCCNC(=O)[C@@H]2CCC[C@H](C2)n2nc(-c3ccc(C(=O)Nc4cc(C(F)(F)F)ccn4)cc3)c3c(N)ncc(c32)C1[2H] (stereo partly shown) [Example 128],< 100,100 to 1000,< 5,–,< 5,–,–,–,100 to 500,–
CC(=O)N1CC/C=C/c2cnc(N)c3c(-c4ccc(C(=O)Nc5cc(C(F)(F)F)ccn5)cc4)nn(c23)[C@@H]2CCC[C@H](C2)NC(=O)C1 [Example 35],< 100,< 100,< 5,–,< 5,–,–,–,100 to 500,–
Nc1ncc2c3c1c(-c1ccc(C(=O)Nc4cc(C(F)(F)F)ccn4)cc1)nn3[C@@H]1CCC[C@H](C1)NC(=O)[C@H]1CCN1CC/C=C/2 [Example 42],< 100,< 100,< 5,–,< 5,–,–,–,100 to 500,–
Nc1ncc2c3c1c(-c1ccc(C(=O)Nc4cc(C(F)(F)F)ccn4)cc1)nn3[C@@H]1CCC[C@H](C1)C(=O)NCCCCCCCC2 [Example 119],< 100,< 100,< 5,–,< 5,–,–,–,500 to 10000,–
Nc1ncc2c3c1c(-c1ccc(C(=O)Nc4ccccn4)cc1)nn3[C@@H]1CCC[C@H](C1)NC(=O)CCC/C=C\C2 [Example 99b],< 100,100 to 1000,5 to 50,–,5 to 50,–,–,–,500 to 10000,–
CN1CCCCc2cnc(N)c3c(-c4ccc(C(=O)Nc5cc(C(F)(F)F)ccn5)cc4)nn(c23)[C@@H]2CCC[C@H](C2)C(=O)NCC1 [Example 140],< 100,1000 to 10000,< 5,–,< 5,–,–,–,500 to 10000,–
Nc1ncc2c3c1c(-c1ccc(C(=O)Nc4ccccn4)cc1)nn3[C@@H]1CCC[C@H](C1)NC(=O)CCCCC/C=C\C2 [Example 102b],< 100,100 to 1000,< 5,–,5 to 50,–,–,–,500 to 10000,–
C[C@@H]1CCn2nc(-c3ccc(C(=O)Nc4cc(C(F)(F)F)ccn4)cc3)c3c(N)ncc(c32)/C=C/CCN2CC[C@@H]2C(=O)N1 [Example 74],< 100,100 to 1000,< 5,–,< 5,–,–,–,500 to 10000,–
C[C@H]1/C=C/c2cnc(N)c3c(-c4ccc(C(=O)Nc5cc(C(F)(F)F)ccn5)cc4)nn(c23)[C@@H]2CCC[C@H](C2)NC(=O)CCCN1C [Example 43],< 100,100 to 1000,< 5,–,< 5,–,–,–,500 to 10000,–

# More lines, main results first:
IC50 ([1]; B-cell) [nM],IC50 ([2]; 72 h) [nM],IC50 [4] [nM],Tau (h) BTK T474I (Act) [5] [h],IC50 [6] [nM],Tau (h) wt-BTK (Act) [7] [h],IC50 [1] [nM],IC50 ([2]; 72 hours) [nM],Structure (SMILES),"IC50 ([3]; Homo sapiens, Rec1) [nM]",IC50 [3] [nM]
< 100,< 100,< 5,>24,< 5,–,–,–,COc1cc(-c2nn3c4c(cnc(N)c24)/C=C/COCCC(=O)N[C@@H]2CCC[C@@H]3C2)ccc1C(=O)Nc1cc(C(F)(F)F)ccn1 [Example 188],< 100,–
–,1000 to 10000,< 5,–,< 5,2.76,–,–,CC(=O)N1C[C@@H]2C[C@@H]1C(=O)NCCCCC/C=C/c1cnc(N)c3c(-c4ccc(C(=O)Nc5cc(C(F)(F)F)ccn5)cc4)nn2c13 [Example 226],500 to 10000,–
< 100,100 to 1000,< 5,–,< 5,–,–,–,C[C@@H]1CCn2nc(-c3ccc(C(=O)Nc4cc(C(F)(F)F)ccn4)cc3)c3c(N)ncc(c32)/C=C/CCO[C@@H](C)CC(=O)N1 [Example 158],500 to 10000,–
< 100,100 to 1000,< 5,–,< 5,–,–,–,C[C@@H]1CNC(=O)[C@@H]2CCC[C@H](C2)n2nc(-c3ccc(C(=O)Nc4cc(C(F)(F)F)ccn4)cc3)c3c(N)ncc(c32)/C=C/CO1 [Example 149],< 100,–
1000 to 10000,1000 to 10000,50 to 500,–,50 to 500,–,–,–,C[C@@H]1CCn2nc(-c3cnn(Cc4ccccc4)c3)c3c(N)ncc(c32)/C=C/CCCCCC(=O)N1 [Example 171],500 to 10000,–
< 100,1000 to 10000,< 5,–,< 5,–,–,–,CC1NC/C=C/c2cnc(N)c3c(-c4ccc(C(=O)Nc5cc(C(F)(F)F)ccn5)cc4)nn(c23)[C@@H]2CCC[C@H](C2)NC1=O (stereo partly shown) [Example 145],500 to 10000,–
< 100,< 100,< 5,–,< 5,–,–,–,Nc1ncc2n3c(nc(-c4ccc(C(=O)Nc5cc(C(F)(F)F)ccn5)cc4)c13)[C@@H]1CCC[C@H](C1)NC(=O)CCOC/C=C/2 [Example 178],100 to 500,–
< 100,1000 to 10000,< 5,–,< 5,–,–,–,CC(=O)N1CC/C=C/c2cnc(N)c3c(-c4ccc(C(=O)Nc5cc(C(F)(F)F)ccn5)cc4)nn(c23)[C@@H]2CCC[C@H](C2)NC(=O)C[C@H]1C [Example 190],500 to 10000,–
< 100,< 100,< 5,–,< 5,2.52,–,–,Nc1ncc2n3c(nc(-c4ccc(C(=O)Nc5cc(C6CC6)ccn5)cc4)c13)[C@@H]1CC[C@H](C1)NC(=O)CCOCC/C=C/2 [Example 223],100 to 500,–
–,< 100,< 5,1.19,< 5,3.59,–,–,Nc1ncc2c3c1c(-c1ccc(C(=O)Nc4cc(C(F)(F)F)ccn4)cc1)nn3[C@@H]1CN[C@H](C1)C(=O)NCCCCC/C=C/2 [Example 225],500 to 10000,–
–,–,< 5,–,< 5,–,< 100,< 100,C[C@@H]1CC(=O)N[C@@H]2CC[C@H](C2)c2nc(-c3ccc(C(=O)Nc4cc(C#N)ccn4)cc3)c3c(N)ncc(n23)/C=C/CCN1 [Example 218],–,500 to 10000
